Experimental data from publication PMC8497620, “Structure and inhibition of Cryptococcus neoformans sterylglucosidase to develop antifungal agents” (Nature Communications, 2021).
Where “and” joins values, the source holds several entries; their conditions need not be identical. Equal entries are not always repeated. Entries after “also recorded” stand apart in the source; their conditions may differ. Where two headings read alike, the source gives them in different places.

How the values were obtained:
[1] = test system: human lung epithelial cancer cell line A549; conditions: LD50 A549 / IC50 Sgl1
Description: The cells were maintained in Dulbecco’s modified eagle medium containing 10% fetal bovine serum and 1% penicillin–streptomycin. At passage 11, 10^5 cells were transferred into each well of 96-well plates and cultured for 18–24 h for the cells to adhere to the well surface. After, the medium was removed and a fresh medium containing the selected compounds at a concentration range of 1–512 μM were added to the wells. Controls with equivalent serial concentrations of DMSO were also evaluated and compared with a control without DMSO. The plate was incubated at 37 °C with 5% CO2. After 24 h, the supernatant was removed and 50 μL of 5 mg/mL 3-(4,5-dimethylthiazol-2-yl)-2,5-diphenyltetrazoliumbromide (MTT) solution in phosphate-buffered saline (PBS) was added to each well. The plates were incubated for an additional 4 h and the formazan crystals formed inside the cell was dissolved by adding 50 μL DMSO.

[2] = test system: C. neoformans H99; experiment: Growth inhibition assay (YNB, 1% glucose, sealed plates, limited oxygen); assay type: cell-based, Cryptococcus neoformans; conditions: 37 °C, 72 h
Description: Five microliters containing 100 cells of C. neoformans H99 were inoculated in solid YNB media without amino acids plus 1% w/v glucose. Plates were then sealed with clear polyolefin sealing tape (ThermoFisher) and incubated at 37 °C for 72 h. Hits 1, 9, and 15 were added to the media at concentrations of 10 and 50 µM. H99, Δsgl1, and Δsgl1 + SGL1 strains were used as controls without compounds.

[3] = target: C. neoformans Sgl1 (Cryptococcus neoformans var. grubii, UniProt J9W473); experiment: Sgl1 inhibition with native substrate erg-glc; assay type: biochemical; conditions: substrate ergosterol 3β-D-glucoside (1 mol%); for inhibition at 10 µM: read-out: % Sgl1 Inhibition, 10 µM compound; for inhibition at 100 µM: read-out: % Sgl1 Inhibition, 100 µM compound; for inhibition at 0.1 µM: read-out: % Sgl1 Inhibition, 0.1 µM compound; for inhibition at 1 µM: read-out: % Sgl1 Inhibition, 1 µM compound
Description: To validate the selective inhibition of Sgl1 by these compounds, we first tested their ability to inhibit hydrolysis of erg-glc in vitro.
A 50 μL volume of Cn Sgl1 wild type and 50 μL of mixed micelles of lipid and Triton X-100 in 50 mM Bis-Tris buffer with 150 mM NaCl, 5 mM βME, and 5 mM DTT were mixed and incubated at 37 °C for 10 min (erg-glc, Avanti Polar Lipids) and 1 h (C6-NBD-glcCer, Matreya). For the substrate erg-glc the amount of protein was 5 ng. 150 ng protein was used for reactions with C6-NBD-GlcCer. After the incubation period, each reaction was quenched with a 2:1 chloroform:methanol solution and the organic phase was collected and dried. Then, the lipid content was resuspended in 50 μL methanol and applied to HPLC (Agilent Technologies). Total erg-glc and ergosterol was detected using absorbance at 282 nm on a C-8 column with a flow rate of 0.5 ml/min in methanol/water 90:10 ratio buffered with 1 mM ammonium formate and 0.2% formic acid. A 85:15 ratio of the same eluent was used for C6-NBD-GlcCer and C6-NBD-ceramide monitoring the fluorescence at 470/530 nm excitation/emission. The total area of product was normalized by the total area of its respective substrate.

[4] = test system: C. neoformans H99; assay type: in vivo, Cryptococcus neoformans; conditions: Hit 1 intranasally, fluconazole intraperitoneally; for brain dissemination / CFU recovered from the brain: 14 days; for Lung (CFU/mL): 10 mg/kg/day
Description: (§1) For animal studies, 4-week-old CBA/J (Envigo) female mice were used. Mouse experiments were performed in full compliance with a protocol approved by Stony Brook University (IACUC number 341588) and in compliance with the United States Animal Welfare Act (Public Law 98–198). The experiments were carried out in facilities accredited by the Association for Assessment and Accreditation of Laboratory Animal Care. Mice were divided into sets of 12 mice for each treatment or control group (4 animals per cage) kept in an animal room (temperature, 22–24 °C; relative humidity, 35–45%) with artificial 12–12 h dark/light cycle. For the experiment with intraperitoneal (i.p.) treatment, mice were infected intranasally with 10 µL of a suspension containing 1 × 10^6 C. neoformans H99 cells and subsequently treated through i.p. injection with 10 mg/kg/day of hit 1 in a final volume of 100 µL of vehicle containing 10% PEG 200 in PBS. The untreated animals received 100 µL of vehicle. For the experiment with intranasal (i.n.) treatment, mice were infected with 1 × 10^5 C. neoformans H99 cells and received i.n. treatment with hit 1 in a final volume of 10 µL. Another group received treatment with 10 mg/kg/day of fluconazole i.p. and a third group received the combined treatment of hit1 by i.n. and fluconazole by i.p. Animals receiving only vehicle i.n. were used as a control group. In both experiments, three mice of each group were euthanized at day 3, 6, 9, and 14 post infection for CFU recovery from lungs and CFU recovery from brain on day 14.

[5] = test system: C. neoformans H99; experiment: Mouse model of cryptococcosis, intraperitoneal treatment (CBA/J mice); assay type: in vivo, Cryptococcus neoformans; conditions: 10 mg/kg/day intraperitoneally; for CFU recovered from the brain: 14 days after infection; for lung CFU compared to vehicle-treated mice: days 3, 6, 9, 14; for Lung (CFU/mL): 10 mg/kg/day
Description: as §1

[6] = test system: C. neoformans H99; assay type: cell-based, Cryptococcus neoformans; conditions: for Ergosterol 3β-D-glucoside accumulation (pmol/ Inorganic phosphate): 100 µM; for accumulation of erg-glc, fold less than the mutant Cn Δsgl1: 500 µM, 24 h; for erg-glc accumulation compared to untreated Cn H99 control: 24 h of treatment
Description: C. neoformans H99 was cultivated in yeast nitrogen base (YNB) broth for 24 h at 37 °C with shaking. […] […] After that, the resultant pellets were re-counted and used for lipid extraction. Thenceforth the total lipid was extracted as described previously by Singh et al.[55]. The dried samples were resuspended in chloroform/methanol 2:1 ratio for LC-MS analysis. A standard erg-glc from Avanti Polar Lipids was used as a control for the calibration curve. Data were normalized to the total inorganic phosphate content in the sample.

[7] = day 14 post infection, 10 mg/kg/day each

Chain of C. neoformans Sgl1 (J9W473 entry or part of it): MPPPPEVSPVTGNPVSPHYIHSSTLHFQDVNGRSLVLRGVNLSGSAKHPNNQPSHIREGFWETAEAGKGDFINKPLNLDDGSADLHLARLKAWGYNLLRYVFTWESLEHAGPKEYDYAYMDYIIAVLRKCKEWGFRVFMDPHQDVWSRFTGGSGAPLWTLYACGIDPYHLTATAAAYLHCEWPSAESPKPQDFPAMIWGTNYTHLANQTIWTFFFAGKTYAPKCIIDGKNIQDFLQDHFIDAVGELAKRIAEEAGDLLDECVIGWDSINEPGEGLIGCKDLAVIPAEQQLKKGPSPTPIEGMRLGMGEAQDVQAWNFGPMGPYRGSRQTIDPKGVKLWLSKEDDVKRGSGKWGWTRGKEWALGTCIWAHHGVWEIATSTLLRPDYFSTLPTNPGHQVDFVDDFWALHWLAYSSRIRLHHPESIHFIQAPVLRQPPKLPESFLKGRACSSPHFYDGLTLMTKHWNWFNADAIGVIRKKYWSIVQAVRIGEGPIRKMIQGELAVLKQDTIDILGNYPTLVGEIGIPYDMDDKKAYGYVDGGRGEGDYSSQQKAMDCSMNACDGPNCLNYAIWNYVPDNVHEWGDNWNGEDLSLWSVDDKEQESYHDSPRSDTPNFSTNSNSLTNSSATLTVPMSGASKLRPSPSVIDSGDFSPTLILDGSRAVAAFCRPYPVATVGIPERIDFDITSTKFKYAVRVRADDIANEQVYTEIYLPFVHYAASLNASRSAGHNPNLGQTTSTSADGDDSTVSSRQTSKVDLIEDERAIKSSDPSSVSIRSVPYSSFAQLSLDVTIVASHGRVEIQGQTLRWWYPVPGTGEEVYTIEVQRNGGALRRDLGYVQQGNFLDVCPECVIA

Compound | selectivity index (SI = LD50/IC50) [1] | growth of wild-type C. neoformans ([2]; 50 µM) | % Sgl1 Inhibition ([3]; 0.1 µM compound, 0.1 µM) | % Sgl1 Inhibition ([3]; 10 µM compound, 10 µM) | % Sgl1 Inhibition ([3]; 100 µM compound, 100 µM) | inhibition at 10 µM [3] | inhibition at 100 µM [3] | Ergosterol 3β-D-glucoside accumulation (pmol/ Inorganic phosphate) ([6]; 12h) | Ergosterol 3β-D-glucoside accumulation (pmol/ Inorganic phosphate) ([6]; 24h) | accumulation of erg-glc, fold less than the mutant Cn Δsgl1 [6] | erg-glc accumulation compared to untreated Cn H99 control [6] | growth of wild-type C. neoformans ([2]; 10 µM) | % Sgl1 Inhibition ([3]; 1 µM compound, 1 µM) | inhibition at 0.1 µM [3] | inhibition at 1 µM [3] | also measured
COc1cccc(-c2ncc(CN3CCC(O)(CO)CC3)s2)c1 [Hit 1] | > 500 | inhibit growth similarly to C. neoformans Δsgl1; also recorded: lack of growth | 11.4412% and 5.382% | 46.34% | 79.9522% | 40.5% | 84.8% | 22000000 pmol/ Inorganic phosphate and 25300000 pmol/ Inorganic phosphate and 19400000 pmol/ Inorganic phosphate | 17200000 pmol/ Inorganic phosphate and 20300000 pmol/ Inorganic phosphate and 31000000 pmol/ Inorganic phosphate | about 10 fold | significant differences, especially in concentrations higher than 10 µM | – | – | – | – | brain dissemination / CFU recovered from the brain [4]: no CFU recovered from the brain; brain dissemination / CFU recovered from the brain ([4]; listed as hit 1): no brain dissemination of yeast cells; Lung (CFU/mL) ([4]; day 9 post infection, 10 mg/kg/day each): 950000 CFU/mL and 1400000 CFU/mL and 780000 CFU/mL; Brain (CFU/mL) [4, 7]: 0 CFU/mL; Lung (CFU/mL) [4, 7]: 3880000 CFU/mL and 3700000 CFU/mL and 3100000 CFU/mL; CFU recovered from the brain [5]: no CFU were recovered from the brain; CFU recovered from the brain ([5]; listed as hit 1): No yeast cells were recovered from the brain; lung CFU compared to vehicle-treated mice [5]: did not reduce lung colony-forming units; lung CFU compared to vehicle-treated mice ([5]; listed as hit 1): no significant difference among untreated and treated mice; Lung (CFU/mL) ([5]; day 3 post infection): 1200000 CFU/mL and 1520000 CFU/mL and 1480000 CFU/mL; Lung (CFU/mL) ([5]; day 9 post infection): 25000000 CFU/mL and 14200000 CFU/mL and 19700000 CFU/mL; Brain (CFU/mL) ([5]; day 14 post infection): 0 CFU/mL; Lung (CFU/mL) ([5]; day 14 post infection): 28600000 CFU/mL and 29600000 CFU/mL and 22000000 CFU/mL
CN1C[C@@H](NC(=O)Cc2ccc3c(c2)NC(=O)CO3)C[C@@H]1CO [Hit 9] | > 500 | inhibit growth similarly to C. neoformans Δsgl1; also recorded: lack of growth | 58.2711% | 98.2082% | 100% | 97.6% | 98.1% | – | – | about 10 fold | – | abrogated C. neoformans growth | 93.4351% | 52.2% | 92.9% | –
CC(C)c1nc(N[C@@H]2C[C@@H](CO)N(C)C2)c2cnn(C)c2n1 [Hit 15] | > 500 | inhibit growth similarly to C. neoformans Δsgl1; also recorded: lack of growth | 19.6403% | 95.289% | – | 95.2% | 100% | 28100000 pmol/ Inorganic phosphate and 30500000 pmol/ Inorganic phosphate and 41500000 pmol/ Inorganic phosphate | 39400000 pmol/ Inorganic phosphate and 51600000 pmol/ Inorganic phosphate and 57400000 pmol/ Inorganic phosphate | about 10 fold | significant differences, especially in concentrations higher than 10 µM | abrogated C. neoformans growth | 70.0789% | 26.7% | 73.4% | selectivity index (SI = LD50/IC50) ([1]; listed as 15): > 512; Ergosterol 3β-D-glucoside accumulation (pmol/ Inorganic phosphate) ([6]; 48h): 34400000 pmol/ Inorganic phosphate and 28300000 pmol/ Inorganic phosphate and 33700000 pmol/ Inorganic phosphate
